Assay [1] has as its system Mycobacterium tuberculosis (Mtb) H37Rv ATCC 27294. Nature of the assay: microbe, parasite or virus in culture. The format is cell-based. The settings on record: read-out: MIC, Mtb H37Rv.
For another assay, the system named is Mtb DprE1 OE. Nature of the assay: microbe, parasite or virus in culture. The format is cell-based, Mycobacterium tuberculosis.
The test system of another assay is Mtb DprE1 C387S. Format: cell-based, Mycobacterium tuberculosis.
Another assay concerns Mtb DprE1 C387G. The format is cell-based, Mycobacterium tuberculosis.
The subject of another assay is Mtb DprE1 Y314H. The format is cell-based, Mycobacterium tuberculosis.
Setting [2] is: Mycobacterium tuberculosis, DPRE1OE, read-out: MIC, Mtb DprE1 OE.
[3] abbreviates: Mycobacterium tuberculosis, DPRE1OE, Table 5, read-out: Mtb DprE1 OE MIC.

Values after ≈ are worked out from the molar mass of the structure shown. Read-outs that look alike come from different tables or passages of the source. Where only a bound is given, the exact number is not on record here.

Consider 14 molecules from US9163020B2, “Azaindole compounds, synthesis thereof, and methods of using the same” (Global Alliance for TB Drug Development, priority 2013, dated 2015).

For D-cycloserine, the MIC is 8 µM in assay [1] and 8 µM in the assay on Mtb DprE1 OE (read-out: MIC, Mtb DprE1 OE). The “MIC, Mtb DprE1 C387S” value against Mtb DprE1 C387S amounted to 8 µM. Also, the “MIC, Mtb DprE1 C387G” value in the assay with Mtb DprE1 C387G worked out at 8 µM. The “MIC, Mtb DprE1 Y314H” value against Mtb DprE1 Y314H lay in the range of 8.0 to 16.0 µM.

As to `COc1ncnc(Cn2cc(C(=O)NCCF)c3ncccc32)c1C` [Compound 3, N-(2-fluoroethyl)-1-((6-methoxy-5-methylpyrimidin-4-yl)methyl)-1H-pyrrolo[3,2-b]pyridine-3-carboxamide], the MIC in assay [1] was 3.12 µM (≈ 1.07 µg/mL); in the assay with Mtb DprE1 OE (setting [2]) it was 50 µM (≈ 17.2 µg/mL). Moreover, the “MIC, Mtb DprE1 C387S” value with Mtb DprE1 C387S worked out at 3.12 µM (≈ 1.07 µg/mL). Further, the “MIC, Mtb DprE1 C387G” value against Mtb DprE1 C387G came to 0.78 µM (≈ 0.268 µg/mL). For the same molecule, the “MIC, Mtb DprE1 Y314H” value with Mtb DprE1 Y314H was more than 100 µM.

As for `NNC(=O)c1ccncc1` [Isoniazid], the results for the MIC (in assay [1] (Mycobacterium tuberculosis); with Mtb DprE1 OE (setting [2])) were 0.06 µM (≈ 0.00823 µg/mL) and 0.03 µM (≈ 0.00411 µg/mL), respectively. In the assay with Mtb DprE1 C387S, the “MIC, Mtb DprE1 C387S” value amounted to 0.06 µM (≈ 0.00823 µg/mL). Moreover, the “MIC, Mtb DprE1 C387G” value with Mtb DprE1 C387G was found to be 0.06 µM (≈ 0.00823 µg/mL). Moreover, the “MIC, Mtb DprE1 Y314H” value against Mtb DprE1 Y314H was found to be 0.06 µM (≈ 0.00823 µg/mL).

In the case of `COc1ncnc(Cn2cc(C(=O)NCCO)c3ncc(C)cc32)c1C` [Compound 17, N-(2-hydroxyethyl)-1-((6-methoxy-5-methylpyrimidin-4-yl)methyl)-6-methyl-1H-pyrrolo[3,2-b]pyridine-3-carboxamide], the MIC in assay [1] (Mycobacterium tuberculosis) came to 1.56 µM (≈ 0.554 µg/mL); with Mtb DprE1 OE (setting [2]), 100 µM (≈ 35.5 µg/mL). For the same molecule, the “MIC, Mtb DprE1 C387S” value against Mtb DprE1 C387S stood at 0.39 µM (≈ 0.139 µg/mL). In addition, the “MIC, Mtb DprE1 C387G” value with Mtb DprE1 C387G came out at 0.78 µM (≈ 0.277 µg/mL). Further, in the assay with Mtb DprE1 Y314H, the “MIC, Mtb DprE1 Y314H” value was more than 200 µM.

Turning to `C[C@H]1COC2(CCN(c3nc(=O)c4cc(C(F)(F)F)cc([N+](=O)[O-])c4s3)CC2)O1` [BTZ043], the MIC was 0.003 µM (≈ 0.00129 µg/mL) in assay [1] and 50 µM (≈ 21.6 µg/mL) in the assay on Mtb DprE1 OE (setting [2]). In the assay on Mtb DprE1 C387S, the “MIC, Mtb DprE1 C387S” value was more than 0.1 µM. The “MIC, Mtb DprE1 C387G” value in the assay on Mtb DprE1 C387G is more than 0.1 µM. The “MIC, Mtb DprE1 Y314H” value against Mtb DprE1 Y314H was in the range of 0.0015 to 0.003 µM. Further, in the assay with Mtb DprE1 Y314H, the “cross-resistance to mutant strain (Tyr314His)” value is “resistance was not observed”.

On to `CC[C@@H](CO)NCCN[C@@H](CC)CO` [Ethambutol], for which the MIC (in assay [1] (Mycobacterium tuberculosis); with Mtb DprE1 OE (setting [2])) was 2 µM (≈ 0.409 µg/mL) each time. The “MIC, Mtb DprE1 C387S” value in the assay with Mtb DprE1 C387S stood at 2 µM (≈ 0.409 µg/mL). Also, in the assay on Mtb DprE1 C387G, the “MIC, Mtb DprE1 C387G” value came out at 4 µM (≈ 0.817 µg/mL). For the same molecule, the “MIC, Mtb DprE1 Y314H” value with Mtb DprE1 Y314H is 2.0 to 4.0 µM.

Turning to Clofazimine, the MIC in assay [1] is listed as 0.125 µM; with Mtb DprE1 OE (read-out: MIC, Mtb DprE1 OE), 0.06 µM. In addition, the “MIC, Mtb DprE1 C387S” value against Mtb DprE1 C387S is 0.03 µM. Moreover, the “MIC, Mtb DprE1 C387G” value with Mtb DprE1 C387G turned out to be 0.03 µM. In addition, in the assay on Mtb DprE1 Y314H, the “MIC, Mtb DprE1 Y314H” value came to 0.125 µM.

Take `COc1nc2ccc(Br)cc2cc1[C@@H](c1ccccc1)[C@@](O)(CCN(C)C)c1cccc2ccccc12` [TMC207]: the MIC in assay [1] (Mycobacterium tuberculosis) was 0.6 µM (≈ 0.333 µg/mL); in the assay on Mtb DprE1 OE (setting [2]), 0.15 µM (≈ 0.0833 µg/mL). Further, the “MIC, Mtb DprE1 C387S” value in the assay with Mtb DprE1 C387S came out at 0.3 µM (≈ 0.167 µg/mL). Further, in the assay with Mtb DprE1 C387G, the “MIC, Mtb DprE1 C387G” value came out at 0.15 µM (≈ 0.0833 µg/mL). Further, the “MIC, Mtb DprE1 Y314H” value in the assay with Mtb DprE1 Y314H fell in the range of 0.15 to 0.3 µM.

`Cc1ccc(Cn2cc(C(=O)NCCF)c3ncccc32)c(C)c1` [Compound 31, 1-(2,4-dimethylbenzyl)-N-(2-fluoroethyl)-1H-pyrrolo[3,2-b]pyridine-3-carboxamide]: in the assay with Mtb DprE1 OE (setting [3]), the MIC turned out to be 25 µM (≈ 8.13 µg/mL). For the same molecule, in the assay with Mtb DprE1 C387S, the “Mtb DprE1 C387S” value turned out to be 0.78 µM. The “Mtb DprE1 C387G MIC” value in the assay with Mtb DprE1 C387G was 0.78 µM. Also, the “Mtb DprE1 Y314H MIC” value with Mtb DprE1 Y314H amounted to 25 µM.

With `CC1COc2c(N3CCN(C)CC3)c(F)cc3c(=O)c(C(=O)O)cn1c23` (centres unmarked) [Ofloxacin, reference compound], the MIC amounted to 1 µM (≈ 0.361 µg/mL) in assay [1] (Mycobacterium tuberculosis) and 0.5 µM (≈ 0.181 µg/mL) in the assay with Mtb DprE1 OE (setting [2]).

As for `COc1cccc(F)c1Cn1cc(C(=O)NCC2CC2)c2ncccc21` [Compound 32, N-(cyclopropylmethyl)-1-(2-fluoro-6-methoxybenzyl)-1H-pyrrolo[3,2-b]pyridine-3-carboxamide], the MIC with Mtb DprE1 OE (setting [3]) came to 50 µM (≈ 17.7 µg/mL). The “Mtb DprE1 C387S” value in the assay with Mtb DprE1 C387S stood at 0.39 µM. The “Mtb DprE1 C387G MIC” value in the assay on Mtb DprE1 C387G stood at 0.39 µM. Besides, the “Mtb DprE1 Y314H MIC” value in the assay on Mtb DprE1 Y314H was determined as 200 µM.

Regarding `CO[C@H]1/C=C/O[C@@]2(C)Oc3c(C)c(O)c4c(O)c(c(/C=N/N5CCN(C)CC5)c(O)c4c3C2=O)NC(=O)/C(C)=C\C=C\[C@H](C)[C@H](O)[C@@H](C)[C@@H](O)[C@@H](C)[C@H](OC(C)=O)[C@@H]1C` [Rifampicin], the MIC with Mtb DprE1 OE (setting [2]) was 0.003 µM (≈ 0.00247 µg/mL).

Regarding `COc1ncnc(Cn2cc(C(=O)NCCF)c3ncc(C)cc32)c1C` [Compound 8, N-(2-fluoroethyl)-1-((6-methoxy-5-methylpyrimidin-4-yl)methyl)-6-methyl-1H-pyrrolo[3,2-b]pyridine-3-carboxamide], the MIC in assay [1] (Mycobacterium tuberculosis) came to 0.39 µM (≈ 0.139 µg/mL); with Mtb DprE1 OE (setting [2]), 6.25 µM (≈ 2.23 µg/mL). The “MIC, Mtb DprE1 C387S” value in the assay on Mtb DprE1 C387S was determined as 0.39 µM (≈ 0.139 µg/mL). In addition, in the assay on Mtb DprE1 C387G, the “MIC, Mtb DprE1 C387G” value came to 0.39 µM (≈ 0.139 µg/mL). The “MIC, Mtb DprE1 Y314H” value against Mtb DprE1 Y314H is more than 200 µM.

As to `COc1c(N2C[C@@H]3CCCN[C@@H]3C2)c(F)cc2c(=O)c(C(=O)O)cn(C3CC3)c12` [Moxifloxacin, reference compound], the MIC stood at 0.125 µM (≈ 0.0502 µg/mL) in assay [1] (Mycobacterium tuberculosis) and 0.06 µM (≈ 0.0241 µg/mL) in the assay with Mtb DprE1 OE (setting [2]).
